Values quoted from earlier work, collected in US11090329B2, “Method and composition for treating gastro-esophageal disorders” (priority 2012, dated 2021).

Test system: esophagitis caused by chemo-radiotherapy
Details: patients with advanced stage III non-small-cell lung cancer

In the case of `O=C(O[C@@H]1Cc2c(O)cc(O)cc2O[C@@H]1c1cc(O)c(O)c(O)c1)c1cc(O)c(O)c(O)c1` [EGCG, epigallocatechin gallate A], the “esophagitis caused by chemo-radiotherapy” value is given as “reduce esophagitis”.
